Test results reported in PMC10119128, “Parkinson’s disease-associated ATP13A2/PARK9 functions as a lysosomal H^+,K^+-ATPase” (Nature Communications, 2023).

Key:
ATP13A2 [1] = molecular target: T1, ATP13A2 (Homo sapiens, UniProt Q9NQ11); test: ΔTG-sensitive ATPase activity in membrane fractions, mock control; […]+ efflux; siRNA knockdown in SH-SY5Y; assay type: biochemical
T1 construct: full-length, N-terminal Xpress-tag, membrane fractions of transfected HEK293 cells
T1 sequence (Q9NQ11 1-1180): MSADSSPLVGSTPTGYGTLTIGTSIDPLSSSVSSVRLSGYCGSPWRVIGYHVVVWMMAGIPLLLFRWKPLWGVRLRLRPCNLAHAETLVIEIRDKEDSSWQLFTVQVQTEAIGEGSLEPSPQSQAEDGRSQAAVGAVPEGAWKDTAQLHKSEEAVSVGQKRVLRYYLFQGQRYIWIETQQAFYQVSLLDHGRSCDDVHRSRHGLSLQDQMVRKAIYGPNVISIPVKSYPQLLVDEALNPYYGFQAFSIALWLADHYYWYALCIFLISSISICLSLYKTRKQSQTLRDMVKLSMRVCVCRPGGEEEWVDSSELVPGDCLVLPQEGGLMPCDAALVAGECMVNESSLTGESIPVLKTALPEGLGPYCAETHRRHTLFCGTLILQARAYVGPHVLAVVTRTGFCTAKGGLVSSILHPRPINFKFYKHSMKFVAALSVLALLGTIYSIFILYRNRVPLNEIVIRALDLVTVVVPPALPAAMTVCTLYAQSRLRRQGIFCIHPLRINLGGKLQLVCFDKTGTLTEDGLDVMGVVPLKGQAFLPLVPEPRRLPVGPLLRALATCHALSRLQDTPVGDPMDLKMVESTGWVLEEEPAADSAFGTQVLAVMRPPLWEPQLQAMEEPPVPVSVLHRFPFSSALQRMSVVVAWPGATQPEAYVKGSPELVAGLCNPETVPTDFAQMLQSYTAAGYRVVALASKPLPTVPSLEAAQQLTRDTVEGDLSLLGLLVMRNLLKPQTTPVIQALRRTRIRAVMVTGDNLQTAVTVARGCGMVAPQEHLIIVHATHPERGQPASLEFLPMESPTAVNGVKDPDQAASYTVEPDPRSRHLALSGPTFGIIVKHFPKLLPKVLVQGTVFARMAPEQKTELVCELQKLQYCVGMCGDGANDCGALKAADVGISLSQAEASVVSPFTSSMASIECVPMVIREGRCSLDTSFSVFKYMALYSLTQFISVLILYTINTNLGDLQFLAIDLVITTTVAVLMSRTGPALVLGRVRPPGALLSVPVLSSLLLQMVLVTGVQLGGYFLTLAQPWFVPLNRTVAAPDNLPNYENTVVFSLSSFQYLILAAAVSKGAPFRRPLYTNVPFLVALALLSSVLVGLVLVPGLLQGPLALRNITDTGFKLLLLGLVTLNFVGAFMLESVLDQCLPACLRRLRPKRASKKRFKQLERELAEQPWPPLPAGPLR

ATP13A2 [2] = molecular target: T1, ATP13A2; test: ΔTG-sensitive ATPase activity in membrane fractions, mock control; […]+ efflux; assay type: biochemical

Row | SMILES | IC50 (ATP13A2 [1]) [nM] | IC50 (ATP13A2 [2]) [nM]
1 | CNCc1cc(-c2ccccc2F)n(S(=O)(=O)c2cccnc2)c1 [vonoprazan] | 800 | 
2 | Cc1nc2c(OCc3ccccc3)cccn2c1CC#N [SCH28080] | 1200 | 
3 | CO/C1=C\C(C)=C\[C@@H](C)[C@@H](O)[C@@H](C)C/C(C)=C/C=C/[C@H](OC)[C@@H]([C@@H](C)[C@@H](O)[C@H](C)[C@@]2(O)C[C@@H](O)[C@H](C)[C@@H](C(C)C)O2)OC1=O [bafilomycin A1] |  | 0.5
